According to PMC12030650, “Synthesis, Antitumor Activities, and Apoptosis-Inducing Activities of Schiff’s Bases Incorporating Imidazolidine-2,4-dione Scaffold: Molecular Docking Studies and Enzymatic Inhibition Activities” (Pharmaceuticals, 2025):
Where “and” joins values, the source holds several entries; their conditions need not be identical. Equal values may be shown once. Read-outs that look alike come from different tables or passages of the source.

Legend:
various cell lines = test system: various cell lines; design: method as in doi:10.1007/s00044-013-0597-1; conditions: read-out: cytotoxic effect on various cell lines IC50; cited from earlier work
EGFR [1] = target: T1, EGFR (Homo sapiens, UniProt P00533); design: method as in PMID 31297023; conditions: read-out: kinase inhibition of EGFR IC50; cited from earlier work
T1 construct: purchased BPS Bioscience 40321
T1 sequence (P00533 25-1210): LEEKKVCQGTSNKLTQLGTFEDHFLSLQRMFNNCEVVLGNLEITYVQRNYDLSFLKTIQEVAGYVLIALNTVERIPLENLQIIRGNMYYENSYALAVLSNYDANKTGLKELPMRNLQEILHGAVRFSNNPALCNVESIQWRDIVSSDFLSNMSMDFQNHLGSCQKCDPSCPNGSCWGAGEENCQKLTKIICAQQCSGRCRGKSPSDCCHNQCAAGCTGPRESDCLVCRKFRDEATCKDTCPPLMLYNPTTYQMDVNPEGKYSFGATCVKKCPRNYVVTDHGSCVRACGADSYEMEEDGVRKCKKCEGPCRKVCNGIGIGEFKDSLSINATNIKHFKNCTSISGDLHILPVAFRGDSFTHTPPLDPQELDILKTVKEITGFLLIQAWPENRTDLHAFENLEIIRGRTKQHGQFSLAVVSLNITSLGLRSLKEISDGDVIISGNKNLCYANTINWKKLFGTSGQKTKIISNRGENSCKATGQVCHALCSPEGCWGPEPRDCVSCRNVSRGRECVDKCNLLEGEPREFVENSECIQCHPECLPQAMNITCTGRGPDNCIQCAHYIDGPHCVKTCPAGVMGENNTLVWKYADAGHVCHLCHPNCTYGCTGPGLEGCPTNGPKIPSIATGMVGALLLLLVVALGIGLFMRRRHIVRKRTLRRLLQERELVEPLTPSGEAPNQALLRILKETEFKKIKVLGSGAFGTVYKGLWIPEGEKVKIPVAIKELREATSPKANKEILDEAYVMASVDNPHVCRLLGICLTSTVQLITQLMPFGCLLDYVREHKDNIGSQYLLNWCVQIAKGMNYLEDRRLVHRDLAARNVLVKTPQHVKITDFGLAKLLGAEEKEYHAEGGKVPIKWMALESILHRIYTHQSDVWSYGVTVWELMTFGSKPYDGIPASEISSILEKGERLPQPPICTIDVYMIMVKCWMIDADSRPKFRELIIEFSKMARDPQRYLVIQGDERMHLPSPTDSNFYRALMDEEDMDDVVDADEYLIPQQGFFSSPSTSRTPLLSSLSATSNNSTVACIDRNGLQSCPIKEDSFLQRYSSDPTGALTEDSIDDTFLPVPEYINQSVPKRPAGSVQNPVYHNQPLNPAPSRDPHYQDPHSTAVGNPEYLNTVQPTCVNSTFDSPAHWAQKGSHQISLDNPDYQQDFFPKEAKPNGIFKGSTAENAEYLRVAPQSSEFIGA

[2] = test system: WI-38 normal fibroblast cell line; experiment: MTT cytotoxicity against normal human cells; type: cell-based; conditions: normal fibroblast WI-38; for IC50: Homo sapiens, read-out: IC50 WI-38
Description: The evaluation was conducted using a 3-(4,5-dimethylthiazol-2-yl)-2,5-diphenyltetrazolium bromide (MTT) assay, as described by the authors of [50, 51]. The cell lines were obtained from ATCC. For comparative purposes, standard drugs, such as doxorubicin and erlotinib, were employed.

EGFR [3] = target: T1, EGFR; experiment: In vitro luminescent EGFR tyrosine kinase assay (Kinase-Glo Max); type: biochemical; conditions: read-out: Kinase Inhibition IC50 EGFR
HER2 = target: T2, HER2 (Homo sapiens, UniProt P04626); experiment: In vitro luminescent HER2 tyrosine kinase assay (Kinase-Glo Max); type: biochemical; conditions: read-out: Kinase Inhibition IC50 HER2
T2 construct: purchased BPS Bioscience 40721
T2 sequence (P04626 23-1255): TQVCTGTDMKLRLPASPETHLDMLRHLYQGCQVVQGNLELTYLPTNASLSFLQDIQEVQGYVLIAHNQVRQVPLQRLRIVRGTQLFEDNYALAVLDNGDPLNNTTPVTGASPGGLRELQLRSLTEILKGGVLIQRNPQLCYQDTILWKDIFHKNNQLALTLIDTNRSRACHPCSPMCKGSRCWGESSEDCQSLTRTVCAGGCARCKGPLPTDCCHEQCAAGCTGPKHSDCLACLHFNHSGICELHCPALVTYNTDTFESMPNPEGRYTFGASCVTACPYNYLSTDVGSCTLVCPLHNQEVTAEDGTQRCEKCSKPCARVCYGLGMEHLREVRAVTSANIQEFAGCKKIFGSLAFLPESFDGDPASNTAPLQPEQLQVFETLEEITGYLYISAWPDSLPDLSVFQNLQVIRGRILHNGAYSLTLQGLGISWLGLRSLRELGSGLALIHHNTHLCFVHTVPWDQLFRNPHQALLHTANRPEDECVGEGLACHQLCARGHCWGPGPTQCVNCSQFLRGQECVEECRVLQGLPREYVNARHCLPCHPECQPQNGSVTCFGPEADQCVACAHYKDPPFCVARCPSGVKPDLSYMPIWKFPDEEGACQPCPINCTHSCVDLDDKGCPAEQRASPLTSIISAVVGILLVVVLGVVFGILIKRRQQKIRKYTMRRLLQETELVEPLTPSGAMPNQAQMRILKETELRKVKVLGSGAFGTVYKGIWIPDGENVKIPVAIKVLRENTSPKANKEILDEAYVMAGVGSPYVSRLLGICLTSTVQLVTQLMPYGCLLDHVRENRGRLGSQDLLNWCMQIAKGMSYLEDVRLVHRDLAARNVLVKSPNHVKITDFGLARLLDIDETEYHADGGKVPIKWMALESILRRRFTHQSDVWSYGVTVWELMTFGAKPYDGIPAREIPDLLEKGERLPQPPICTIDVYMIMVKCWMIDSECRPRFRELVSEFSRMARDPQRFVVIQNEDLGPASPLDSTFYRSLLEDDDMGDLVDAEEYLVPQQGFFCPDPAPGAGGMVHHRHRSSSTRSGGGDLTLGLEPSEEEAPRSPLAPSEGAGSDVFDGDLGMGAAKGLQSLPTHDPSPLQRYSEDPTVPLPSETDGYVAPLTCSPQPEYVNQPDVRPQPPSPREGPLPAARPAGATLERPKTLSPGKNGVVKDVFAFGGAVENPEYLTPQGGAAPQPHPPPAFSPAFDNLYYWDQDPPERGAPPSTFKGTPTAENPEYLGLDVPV
Description: […]. Erlotinib was probed as the standard drug in the EGFR inhibition assay, while lapatinib was tested as the […]. […].
EGFR and HER2 kinase inhibitory activities were determined based on the manufacturer’s guidelines (EGFR Kinase Assay Kit Catalog no. 40321 and HER2 Kinase Assay Kit Catalog no. 40721, BPS Bioscience, San Diego, CA).

[4] = test system: anti-apoptotic protein MCL-1 in MCF-7; experiment: MCL-1 expression in MCF-7 cells (ELISA); type: cell-based, human
Description: (§1) Apoptosis is regulated by intrinsic pathways such as the B-cell lymphoma-2 (BCL-2) family. […] MCL-1, one of the BCL-2 family members, is likely to have a significant role in cell death. The expression of MCL-1 and BCL-2 in MCF-7 cells treated with different concentrations was studied.
(§2) Apoptosis of the MCF-7 cancer cell line was measured using the Human MCL1eia kit (ELISA Kit) for the MCL-1 enzyme assay and the Invitrogen Zymed® Bcl-2 ELISA Kit for the BCL-2 enzyme assay. The ROBONIK P2000 ELISA READER was used for analysis.

[5] = test system: anti-apoptotic protein BCL-2 in MCF-7; experiment: BCL-2 expression in MCF-7 cells (ELISA); type: cell-based, human
Description: as §1, §2

MCF-7 cell line = experiment: Cell cycle analysis (propidium iodide, flow cytometry); type: cell-based, human
Description: Cell cycle analysis is used to quantify DNA content distribution via flow cytometry at various cell cycle stages (pre-G1, G1, S, and G2/M). Compound 24 was selected to analyze its effect on cell cycle progression in the MCF-7 cell line at different concentrations.
Cancer cell line MCF-7 was stained with ab139418_Propidium Iodide (DNA stain) and analyzed using a FACSCalibur flow cytometer.

[6] = test system: breast adenocarcinoma (MCF-7); experiment: MTT cytotoxicity assay, MCF-7; conditions: for IC50: Homo sapiens, MCF7, read-out: IC50 MCF-7; for SI (selectivity index) MCF-7: WI-38 vs MCF-7
hepatoblastoma (HePG-2) = experiment: MTT cytotoxicity assay, HePG-2; conditions: for IC50: Homo sapiens, HepG2, read-out: IC50 HePG-2; for SI (selectivity index) HePG-2: WI-38 vs HePG-2
[7] = test system: human colorectal carcinoma (HCT-116); experiment: MTT cytotoxicity assay, HCT-116; conditions: for IC50: Homo sapiens, HCT-116, read-out: IC50 HCT-116; for SI (selectivity index) HCT-116: WI-38 vs HCT-116
[8] = test system: HCT-116, HePG-2, and MCF-7; experiment: MTT cytotoxicity, summary over the examined cancer cell lines; conditions: Homo sapiens
[9] = test system: breast cancer cell line MCF-7; design: method as in doi:10.1016/j.rechem.2023.101118; conditions: cited from earlier work

IC50 (EGFR [3])	IC50 (HER2)	Structure (SMILES)	IC50 [2]	IC50 WI-38 [2]	IC50 [6]	SI (selectivity index) MCF-7 [6]	IC50 (hepatoblastoma (HePG-2))	SI (selectivity index) HePG-2 (hepatoblastoma (HePG-2))	IC50 [7]	SI (selectivity index) HCT-116 [7]	further results
		O=C(CN1C(=O)NC(c2ccccc2)(c2ccccc2)C1=O)c1ccc(N2CCCCC2)cc1 [Compound 2]									IC50 (various cell lines): 10 µM
		O=C(CN1C(=O)NC(c2ccccc2)(c2ccccc2)C1=O)N/N=C/c1c[nH]c2ccccc12 [Compound 1]									IC50 (EGFR [1]): 0.1 µM
0.07 ± 0.004 µM	0.04 ± 0.001 µM	CC(=NNC(=O)CN1C(=O)NC(c2ccccc2)(c2ccccc2)C1=O)c1ccc2ccccc2c1 [Compound 24, 2-(2,5-Dioxo-4,4-diphenylimidazolidin-1-yl)-N′-(1-(naphthalen-2-yl)ethylidene)acetohydrazide]	39.5 µM	low cytotoxicity	4.92 ± 0.3 µM	8.0 and 8.03	9.07 ± 0.8 µM	4.3 and 4.35	12.8 ± 0.9 µM	3.0 and 3.08	MCL-1 expression level ([4]; 2 µM): 715.62 pg/mL; MCL-1 expression level ([4]; 10 μM): 261.20 pg/mL and 261.20 ± 8.97 pg/mL; BCL-2 expression level ([5]; 2 µM): 15.55 ng/mL; BCL-2 expression level ([5]; 10 μM): 8.60 ng/mL and 8.598 ± 0.29 ng/mL; Comment (cell cycle arrest) (MCF-7 cell line): cell cycle arrest appeared at the G2/M phase; %G0–G1 (MCF-7 cell line; 2 µM): 52.12%; %G2/M (MCF-7 cell line; 2 µM): 25.43%; %S (MCF-7 cell line; 2 µM): 22.45%; %G0–G1 (MCF-7 cell line; 10 μM): 50.61%; %G2/M (MCF-7 cell line; 10 μM): 33.46%; %S (MCF-7 cell line; 10 μM): 15.93%; IC50 ([8]; read-out: IC50 range against the selected cell lines): 4.92 to 20.1 µM
		O=C(CN1C(=O)NC(c2ccccc2)(c2ccccc2)C1=O)Nc1ccc(S(=O)(=O)Nc2ccccn2)cc1 [Compound 3]									inhibition of the breast cancer cell line MCF-7 [9]: around 74%
0.67 ± 0.03 µM	0.71 ± 0.02 µM	CC(=NNC(=O)CN1C(=O)NC(c2ccccc2)(c2ccccc2)C1=O)c1ccc(Cl)cc1 [Compound 10, N′-(1-(4-Chlorophenyl)ethylidene)-2-(2,5-dioxo-4,4-diphenylimidazolidin-1-yl)acetohydrazide]	54.2 µM	low cytotoxicity	11.2 ± 0.9 µM	4.8 and 4.84	10.7 ± 0.9 µM	5.0 and 5.07	17.9 ± 1.4 µM	3.0 and 3.02	IC50 ([8]; read-out: average IC50 versus the examined cell lines): 13.2 µM
